Assay results taken from US8865220B2, “Method for controlled release of parathyroid hormone from encapsulated poly(lactic-glycolic)acid microspheres” (Kaohsiung Medical University, priority 2010, dated 2014).
Values joined by “and” are separate entries in the source; they are usually repeats but may differ in a detail not shown here. Equal values may be shown once. Read-outs that look alike come from different tables or passages of the source.

Key:
MC3T3-E1 cells = experiment: Bioactivity of released PTH(1-34): intracellular cAMP; assay type: cell-based; details: PTH(1-34) released from microspheres at 1 and 3 days; 6 hrs incubation
Method: Activity of controlled released PTH(1-34) was determined by measuring cAMP contents in cells treated with released PTH(1-34). For these experiments, the MC3T3-E1 was cultured in α-MEM supplemented with 10% fetal bovine serum and […] ascorbic acid. The cells were seeded onto 24-well plates at a density of 50,000 cells/well. After 6 hrs of incubation with released PTH (1-34) from microspheres, the cells were lysed directly in the medium by adding 0.1 N HCl and 0.5 mM isobutylmethylxanthine to protect the produced cAMP. Intracellular cAMP was measured using a commercially available ELISA kit (Endogen/Pierce, Rockford, Ill.) following the manufacturer's instructions.

[1] = tested on: papain-induced osteoarthritis, articular cartilage; experiment: Papain-induced osteoarthritis, histology and immunohistochemistry of articular cartilage; assay type: in vivo, rat
Method: The animal experiments were approved by the Animal Care and Use Committee of Kaohsiung Medical University. Fifty-four 12-week-old male Sprague-Dawley rats (250-300 gm) were purchased from BioLASCO Taiwan and housed under standard laboratory conditions (temperature 24° C., 12-hour light-dark cycle) with food and water ad libitum. The animals were acclimatized to the laboratory environment for 1 week before the experiments.
Each left knee, which served as the contralateral control joint, received the vehicle without PTH treatment or OA-induction. The right knees were the study joints. Rats were divided into five groups: Non-OA+PTH [PTH(1-34) treatment without OA-induction] (n=6), Non-OA+PTH/PLGA [PTH/PLGA microspheres treatment without OA-induction] (n=6), OA [OA-induction without PTH(1-34) treatment] (n=6), OA+PTH [PTH(1-34) treatment followed by OA-induction] (n=6), and OA+PTH/PLGA [PTH/PLGA microspheres treatment followed by OA-induction] (n=6). OA was induced in the right knees of rats in the OA and OA+PTH groups with intra-articular injections of 20 μl of 4% papain solution and 20 μl of 0.03 M cystein. The injections were given with a 26-gauge needle via the patellar tendon on days 1, 4, and 7 of the experiment (13). In the OA+PTH group, after OA-induction, the right knees were injected intra-articularly with 40 μl of 10 nM PTH(1-34) every three days until sacrifice. In the PTH group, the same PTH(1-34) treatment was performed but without OA-induction. In the OA+PTH/PLGA group, after OA-induction, the right knees were injected intra-articularly with 0.4 mg of PTH/PLGA microspheres at 1st and 15th day. The rats were sacrificed with an overdose of CO2-inhaled at the same time point at 5 weeks.
After sacrifice, the knees of each rat were harvested, and the tibia plateaus with articular cartilage were collected and fixed with 10% neutral buffered formalin prior to histological preparation. The samples were then decalcified in 10% formic acid/PBS. The decalcified tibia articular samples were paraffin embedded, and 5 μm microsections in the coronary plane were prepared. GAG was stained with Safranin-O-Fast-Green (1% Safranin-O counter-stained with 0.75% hematoxylin and then 1% fast green) (Sigma, St. Louis, Mo.). Localized type II Collagen and type X collagen were immuno-stained.
GAG was stained red by Safarinin-O, and the total and red-stained areas in the articular cartilage of each proximal tibia were measured using the Image-Pro plus 5.0 software (FIG. 6C) (Media Cybernetics Inc. MD, USA). The ratio of red stained area to total area (red/total) in each group was calculated.
The tibia articular sections were re-hydrated, and the endogenous peroxidase in tissues was blocked with 3% hydrogen peroxide. Samples were digested by enzymes for epitope retrieval before incubation with primary antibodies. The method for enzyme digestion was modified from a previous report (20). The optimal condition for the enzyme digestion for type II collagen immuno-staining was a mixture of 2.5% hyluronidase and 1 mg/ml pronase in PBS (pH 7.4) (Sigma, St. Louis, Mo.) at 37° C. for 1 hour. For type X collagen immuno-staining the optimal condition was 0.1 U/ml chondroitinase ABC (Sigma, St. Louis, Mo.) for 1 hour and pepsin 1 mg/ml in tris-HCl (pH 3.0) at 37° C. for 15 minutes. […]

[2] = oral administration, in comparison to subcutaneous administration; cited from earlier work
[3] = pulmonary route, cited from earlier work
[4] = tested on: papain induced osteoarthritis; details: injection once in three days for 5 weeks; cited from earlier work
[5] = Non-OA study joints (no OA-induction)
[6] = OA-induced study joints, intra-articular, 5 weeks

With `CC[C@H](C)[C@H](NC(=O)[C@H](CCC(=O)O)NC(=O)[C@H](CO)NC(=O)[C@@H](NC(=O)[C@@H](N)CO)C(C)C)C(=O)N[C@@H](CCC(N)=O)C(=O)N[C@@H](CC(C)C)C(=O)N[C@@H](CCSC)C(=O)N[C@@H](Cc1cnc[nH]1)C(=O)N[C@@H](CC(N)=O)C(=O)N[C@@H](CC(C)C)C(=O)NCC(=O)N[C@@H](CCCCN)C(=O)N[C@@H](Cc1cnc[nH]1)C(=O)N[C@@H](CC(C)C)C(=O)N[C@@H](CC(N)=O)C(=O)N[C@@H](CO)C(=O)N[C@@H](CCSC)C(=O)N[C@@H](CCC(=O)O)C(=O)N[C@@H](CCCN=C(N)N)C(=O)N[C@H](C(=O)N[C@@H](CCC(=O)O)C(=O)N[C@@H](Cc1c[nH]c2ccccc12)C(=O)N[C@@H](CC(C)C)C(=O)N[C@@H](CCCN=C(N)N)C(=O)N[C@@H](CCCCN)C(=O)N[C@@H](CCCCN)C(=O)N[C@@H](CC(C)C)C(=O)N[C@@H](CCC(N)=O)C(=O)N[C@@H](CC(=O)O)C(=O)N[C@H](C(=O)N[C@@H](Cc1cnc[nH]1)C(=O)N[C@@H](CC(N)=O)C(=O)N[C@@H](Cc1ccccc1)C(=O)O)C(C)C)C(C)C` [PTH(1-34)] as the compound, how does the cAMP production (MC3T3-E1 cells) read?
Its cAMP production is “increased production of cAMP”.

And the “Safranin O-stained area to total area (red:total, GAG) vs contralateral control” value [1, 5]?
The value was “not significantly different”.

What about the “type II collagen stained area to total area vs contralateral control” value [1, 5] of the same compound?
Its value is “not significantly different”.

And the “type X collagen-stained chondrocytes vs OA group” value ([1]; OA-induced study joints, after 5 weeks of treatment)?
The value was “less positive stained cells”.

And the “Safranin O-stained area to total area (red:total, GAG) vs contralateral control” value [1, 6]?
The value was “not significantly different from the contralateral control cartilage”.

What about the “type II collagen stained area to total area (brown:total) vs contralateral control” value [1, 6] of the same compound?
The value was “not significantly different from the contralateral control cartilage”.

And the bioavailability [2]?
Its bioavailability is 5% and 2.1%.

What about the bioavailability ([3]; inhalation of dry powders) of the same compound?
Its bioavailability is 34%.

What about the bioavailability ([3]; intratracheal instillation) of the same compound?
The bioavailability was 40%.

And the effective dose [4]?
The effective dose was 10^−8 M.
